Consider three molecules from patent US10870647B2, “Imidazopyridine derivative, method for preparing same, and pharmaceutical composition containing same as active ingredient for preventing or treating cancer” (DAEGU-GYEONGBUK MEDICAL INNOVATION FOUNDATION, priority 2016, dated 2020).

Holding throughout (test): Kinase selectivity, scanMAX Kinase assay panel (DiscoverX), % control at 1 uM
What all share (format): binding

Test [1] deals with T1, scanMAX Kinase assay panel (Homo sapiens, UniProt Q12852).
T1 construct: purchased DiscoverX
T1 sequence (Q12852 1-859): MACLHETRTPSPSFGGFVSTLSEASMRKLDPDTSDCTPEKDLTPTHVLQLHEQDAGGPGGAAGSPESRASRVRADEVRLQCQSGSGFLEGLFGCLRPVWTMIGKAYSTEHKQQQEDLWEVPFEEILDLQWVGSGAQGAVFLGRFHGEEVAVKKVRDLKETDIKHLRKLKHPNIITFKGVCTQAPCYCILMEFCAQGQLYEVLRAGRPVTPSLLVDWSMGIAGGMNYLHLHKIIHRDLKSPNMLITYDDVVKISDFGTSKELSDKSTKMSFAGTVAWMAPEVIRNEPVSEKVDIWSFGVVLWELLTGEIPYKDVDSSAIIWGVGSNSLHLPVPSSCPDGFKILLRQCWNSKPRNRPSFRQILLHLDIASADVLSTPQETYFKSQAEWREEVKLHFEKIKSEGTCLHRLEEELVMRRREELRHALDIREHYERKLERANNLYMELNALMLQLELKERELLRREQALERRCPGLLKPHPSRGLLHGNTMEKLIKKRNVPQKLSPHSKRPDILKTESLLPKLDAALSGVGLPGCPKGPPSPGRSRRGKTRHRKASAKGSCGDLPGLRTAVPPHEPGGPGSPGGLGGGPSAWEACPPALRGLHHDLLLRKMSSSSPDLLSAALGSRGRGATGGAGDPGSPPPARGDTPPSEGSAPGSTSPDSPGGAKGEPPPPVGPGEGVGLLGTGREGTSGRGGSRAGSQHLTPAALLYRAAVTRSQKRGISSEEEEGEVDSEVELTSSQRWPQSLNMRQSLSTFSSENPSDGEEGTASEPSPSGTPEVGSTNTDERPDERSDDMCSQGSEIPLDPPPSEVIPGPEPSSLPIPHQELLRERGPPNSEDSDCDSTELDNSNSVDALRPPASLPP
To be noted: DLK; 1 uM; read-out: Percent Control (%). The method, boiled down: (§1)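 Read-out is percent of control, derived from the signal with compound relative to positive and negative controls: (compound − positive)/(negative − positive) × 100. Each enzyme received test drug at 1 uM in DMSO, and values under 35% count as active.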

For test [2], the target named is T2, scanMAX Kinase assay panel (Homo sapiens, UniProt P30530).
T2 construct: purchased DiscoverX
T2 sequence (P30530 26-894): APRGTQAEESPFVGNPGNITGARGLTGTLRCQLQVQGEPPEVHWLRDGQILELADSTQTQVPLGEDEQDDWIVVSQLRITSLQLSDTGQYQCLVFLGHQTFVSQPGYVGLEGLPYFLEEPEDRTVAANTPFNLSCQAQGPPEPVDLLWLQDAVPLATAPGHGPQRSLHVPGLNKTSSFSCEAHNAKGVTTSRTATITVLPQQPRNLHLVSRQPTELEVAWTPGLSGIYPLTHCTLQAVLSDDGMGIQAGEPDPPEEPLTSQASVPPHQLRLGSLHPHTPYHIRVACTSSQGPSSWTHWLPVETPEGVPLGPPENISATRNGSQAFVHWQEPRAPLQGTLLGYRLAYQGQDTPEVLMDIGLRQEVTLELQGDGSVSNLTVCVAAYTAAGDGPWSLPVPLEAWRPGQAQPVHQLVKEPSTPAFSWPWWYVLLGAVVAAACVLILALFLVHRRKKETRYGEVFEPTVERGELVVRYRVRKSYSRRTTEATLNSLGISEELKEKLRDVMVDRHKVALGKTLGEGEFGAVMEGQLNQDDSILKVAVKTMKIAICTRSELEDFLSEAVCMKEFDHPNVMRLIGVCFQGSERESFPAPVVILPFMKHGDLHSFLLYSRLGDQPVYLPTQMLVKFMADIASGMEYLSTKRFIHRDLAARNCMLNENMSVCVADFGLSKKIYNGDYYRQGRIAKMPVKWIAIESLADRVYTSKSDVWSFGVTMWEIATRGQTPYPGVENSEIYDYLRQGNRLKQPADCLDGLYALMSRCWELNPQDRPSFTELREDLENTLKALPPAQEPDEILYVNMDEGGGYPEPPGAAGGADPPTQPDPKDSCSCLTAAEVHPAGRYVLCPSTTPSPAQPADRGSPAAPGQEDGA
The following applies: AXL; 1 uM; read-out: Percent Control (%). The method, boiled down: as §1

Test [3] has as its target T3, scanMAX Kinase assay panel (Homo sapiens, UniProt Q15569).
T3 construct: purchased DiscoverX
To be noted: TESK1; 1 uM; read-out: Percent Control (%). The method, boiled down: as §1

In test [4] the target is T4, scanMAX Kinase assay panel (Homo sapiens, UniProt O43353).
T4 construct: purchased DiscoverX
To be noted: RIPK2; 1 uM; read-out: Percent Control (%). The method, boiled down: as §1

The target of test [5] is T5, scanMAX Kinase assay panel (Homo sapiens, UniProt O96013).
T5 construct: purchased DiscoverX
To be noted: PAK4; 1 uM; read-out: Percent Control (%). The procedure, abridged: as §1

The target in test [6] is T6, scanMAX Kinase assay panel (Homo sapiens, UniProt Q52WX2).
T6 construct: purchased DiscoverX
The following applies: SBK1; 1 uM; read-out: Percent Control (%). The procedure, abridged: as §1

T5 sequence (O96013 whole entry): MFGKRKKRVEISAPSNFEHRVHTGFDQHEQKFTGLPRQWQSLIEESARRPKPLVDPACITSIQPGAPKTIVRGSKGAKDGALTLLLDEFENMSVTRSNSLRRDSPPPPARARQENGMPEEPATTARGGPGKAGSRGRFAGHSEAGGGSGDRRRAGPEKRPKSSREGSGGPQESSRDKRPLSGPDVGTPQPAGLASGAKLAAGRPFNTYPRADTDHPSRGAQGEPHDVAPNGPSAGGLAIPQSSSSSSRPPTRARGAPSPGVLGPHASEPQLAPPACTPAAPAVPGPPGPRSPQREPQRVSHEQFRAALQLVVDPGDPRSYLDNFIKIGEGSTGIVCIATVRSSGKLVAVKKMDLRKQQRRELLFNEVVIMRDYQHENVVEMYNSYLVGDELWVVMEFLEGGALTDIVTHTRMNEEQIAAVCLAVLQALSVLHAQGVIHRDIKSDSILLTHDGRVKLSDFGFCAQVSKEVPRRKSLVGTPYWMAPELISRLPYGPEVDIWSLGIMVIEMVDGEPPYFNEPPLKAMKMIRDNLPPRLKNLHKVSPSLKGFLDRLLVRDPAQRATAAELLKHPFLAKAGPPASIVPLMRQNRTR
T4 sequence (O43353 whole entry): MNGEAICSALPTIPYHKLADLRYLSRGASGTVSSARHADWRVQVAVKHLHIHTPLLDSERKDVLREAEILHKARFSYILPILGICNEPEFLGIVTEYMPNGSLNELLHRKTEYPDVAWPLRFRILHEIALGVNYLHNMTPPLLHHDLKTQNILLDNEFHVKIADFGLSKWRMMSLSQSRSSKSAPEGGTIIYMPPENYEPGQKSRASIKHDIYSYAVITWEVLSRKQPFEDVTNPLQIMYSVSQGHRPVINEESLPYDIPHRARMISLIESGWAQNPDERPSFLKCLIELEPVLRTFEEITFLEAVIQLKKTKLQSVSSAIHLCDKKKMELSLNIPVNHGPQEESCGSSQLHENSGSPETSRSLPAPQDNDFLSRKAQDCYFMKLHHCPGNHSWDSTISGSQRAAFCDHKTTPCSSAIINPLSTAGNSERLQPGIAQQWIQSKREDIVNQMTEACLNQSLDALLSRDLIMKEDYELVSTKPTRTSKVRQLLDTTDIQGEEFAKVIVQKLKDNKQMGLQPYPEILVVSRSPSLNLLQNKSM
T6 sequence (Q52WX2 whole entry): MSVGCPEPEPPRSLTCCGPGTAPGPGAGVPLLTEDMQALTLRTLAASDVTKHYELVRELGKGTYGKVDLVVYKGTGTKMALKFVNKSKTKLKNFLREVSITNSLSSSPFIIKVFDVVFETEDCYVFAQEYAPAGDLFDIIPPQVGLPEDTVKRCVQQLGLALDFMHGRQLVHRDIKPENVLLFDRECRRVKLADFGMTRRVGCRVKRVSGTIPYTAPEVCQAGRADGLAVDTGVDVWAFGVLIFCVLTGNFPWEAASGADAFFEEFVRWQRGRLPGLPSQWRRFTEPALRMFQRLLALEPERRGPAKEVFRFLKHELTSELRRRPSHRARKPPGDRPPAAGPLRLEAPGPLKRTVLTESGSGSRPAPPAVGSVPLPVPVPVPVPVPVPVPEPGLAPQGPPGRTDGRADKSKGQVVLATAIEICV
T3 sequence (Q15569 whole entry): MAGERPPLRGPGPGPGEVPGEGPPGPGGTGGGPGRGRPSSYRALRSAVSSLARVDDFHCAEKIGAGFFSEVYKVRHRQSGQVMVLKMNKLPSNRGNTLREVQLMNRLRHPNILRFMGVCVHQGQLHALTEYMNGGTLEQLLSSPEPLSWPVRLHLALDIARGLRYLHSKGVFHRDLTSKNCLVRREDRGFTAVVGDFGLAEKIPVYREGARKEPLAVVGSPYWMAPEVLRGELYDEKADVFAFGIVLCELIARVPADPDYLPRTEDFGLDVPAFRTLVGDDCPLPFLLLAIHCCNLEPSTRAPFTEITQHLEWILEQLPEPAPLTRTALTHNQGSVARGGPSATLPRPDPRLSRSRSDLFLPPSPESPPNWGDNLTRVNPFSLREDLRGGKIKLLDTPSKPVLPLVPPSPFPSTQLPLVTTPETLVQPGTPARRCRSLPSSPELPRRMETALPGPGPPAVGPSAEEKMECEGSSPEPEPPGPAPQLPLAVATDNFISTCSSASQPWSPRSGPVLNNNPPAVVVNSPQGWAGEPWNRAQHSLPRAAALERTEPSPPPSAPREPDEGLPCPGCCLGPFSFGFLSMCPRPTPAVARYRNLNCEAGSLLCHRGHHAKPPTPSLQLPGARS

For `Cc1ccc(C(=O)Nc2ccc(CN3CCN(C)CC3)c(C(F)(F)F)c2)cc1C#Cc1cnc2c(Nc3cnn(C)c3)cccn12` [Example 1, 4-methyl-3-((8-((1-methyl-1H-pyrazol-4-yl)amino)imidazo[1,2-a]pyridin-3-yl)ethynyl)-N-(4-((4-methylpiperazin-1-yl)methyl)-3-(trifluoromethyl)phenyl)benzamide], the remaining binding at 1 µM in test [1] is 29%; in test [2], 2%; in test [3] it was 26%; in test [4], 7%; in test [5], 85%; in test [6], 89%.
For `Cc1cn(-c2cc(NC(=O)c3ccc(C)c(C#Cc4cnc5c(Nc6cnn(C)c6)cccn45)c3)cc(C(F)(F)F)c2)cn1` [Example 12, 4-methyl-N-(3-(4-methyl-1H-imidazol-1-yl)-5-(trifluoromethyl)phenyl)-3-((8-((1-methyl-1H-pyrazol-4-yl)amino)imidazo[1,2-a]pyridin-3-yl)ethynyl)benzamide], the remaining binding at 1 µM in test [1] came to 100%; in test [2] it was 48%; in test [3], 81%; in test [4] it was 22%; in test [5], 98%; in test [6] it was 94%.
As to `Cc1ccc(NC(=O)C2(C(=O)Nc3ccc(F)cc3)CC2)cc1C#Cc1cnc2c(Nc3cnn(C(C)C)c3)cccn12` [Example 78], the remaining binding at 1 µM in test [1] came out at 100%; in test [2] it was 93%; in test [3] it was 100%; in test [4], 99%; in test [5] it was 100%; in test [6], 100%.
